What was measured:
Mus musculus = assay: Hypolipidemic activity in tyloxapol-induced Kunming mouse model of hyperlipidemia assessed as liver index at 100 mg/kg, po measured after 24 hrs (reference value: 65.00 +/- 0.87); type: functional
3T3-L1 = assay: Hypolipidemic activity in mouse 3T3-L1 preadipocytes assessed as reduction in lipid content at 10 uM by Oil Red O staining based assay relative to control; type: functional; design: scale not given: the % may be the effect or the level left

**Q.** For CC(C)=CCC/C(C)=C/Cc1c(O)cc(O)c(C(=O)/C=C/c2ccc(O)cc2)c1O, which Activity_index (Mus musculus) is on record?
**A.** The Activity_index was 52.78.

**Q.** What about the Activity (3T3-L1) of the same molecule?
**A.** Its Activity is 67.87%.

— ChEMBL document CHEMBL4765421, “Synthesis of natural 3'-Prenylchalconaringenin and biological evaluation of ameliorating non-alcoholic fatty liver disease and metabolic syndrome” (Eur J Med Chem, 2020)
